PubChem BioAssay (NCI)
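Exposure lasted 48 hours, with cells grown in 96-well plates and compounds tested at five concentrations. GI50 is the concentration that inhibits growth by half. Definition used: TGI = concentration required for complete inhibition of growth.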

Assays:
Experiment in all cases: growth of human tumour cells (NCI), 48 h
[1] = system: A549 NSCLC
[2] = system: DU-145 prostate
[3] = system: HCT-15 colon
[4] = system: IGROV1 ovarian
[5] = system: MALME-3M melanoma
[6] = system: MDA-N
[7] = system: PC-3 prostate
[8] = system: RPMI-8226 leukemia
[9] = system: SF-295 CNS
[10] = system: SF-539 CNS
[11] = system: SK-OV-3 ovarian

Compound | TGI [1] [µM] | TGI [2] [µM] | TGI [3] [µM] | TGI [4] [µM] | TGI [5] [µM] | TGI [6] [µM] | TGI [7] [µM] | TGI [8] [µM] | TGI [9] [µM] | TGI [10] [µM] | TGI [11] [µM] | GI50 [8] [µM]
C=CC1(CBr)CCC(C(C)(C)Br)O1 (stereo not given) | 33.9 | 25.7 | 23.8 | 22.7 | 27.8 | 22.7 | 24.5 | 6.11 | 24.8 | 30.8 | 29 | –
CCOC(=O)CC[C@@H](NC(=O)c1ccc(NCc2ccc3nc(OC)c(OC)nc3c2)cc1)C(=O)OCC | > 100 | > 100 | > 100 | 56.7 | 39 | > 85.2 | > 100 | > 100 | > 100 | 45.8 | > 100 | –
Cc1ccc(NC(=S)NNC(=O)c2cc(-c3ccccc3)nc3ccccc23)cc1C | 43.7 | 45.4 | 60.5 | 63.6 | 43.6 | 40 | 42.9 | 59.2 | 29.6 | 40.3 | 32.9 | –
COc1ccc(CN=C2Nc3ccncc3S(=O)(=O)N2c2ccccc2)cc1 | > 100 | > 100 | > 100 | > 100 | > 100 | > 100 | > 100 | 42.3 | > 100 | 33.9 | > 100 | –
CC(C)(N=NC(C)(C)C1=NCCN1)C1=NCCN1 | > 100 | > 100 | > 100 | > 100 | > 100 | > 100 | > 100 | > 100 | > 100 | > 100 | > 100 | > 100
O=[N+]([O-])/C(C(Cl)=C(Cl)Cl)=C(/Sc1ccccc1)N1CCOCC1 | 41.7 | 25.2 | 10.9 | 11.1 | 18.2 | 14.6 | 14.8 | 5.73 | 36.4 | 25.5 | 79.8 | –
CCC(/C=C/c1ccccc1)=N\NC(=S)N/N=C(/C=C/c1ccccc1)CC | > 100 | > 100 | > 100 | > 100 | > 100 | > 100 | > 100 | > 100 | > 100 | 91.6 | > 100 | –
COC(=O)CC1(O)C(C=C(C)C)C(C(=O)OC)C(=O)C(C(=O)OC)C1C(=O)OC (stereo not given) | > 100 | > 100 | > 100 | > 100 | > 100 | > 100 | > 100 | > 100 | > 100 | > 100 | > 100 | –
Cc1ccc(-c2c(C#N)c(S)n(NS(=O)(=O)c3ccccc3)c(=O)c2C#N)cc1 | > 100 | > 100 | 50.5 | 85.4 | > 100 | > 100 | > 100 | 77.4 | > 100 | 58.3 | > 100 | –
